This note sets out measurements from ChEMBL document CHEMBL4387736, “Anticancer saponin OSW-1 is a novel class of selective Golgi stress inducer” (Bioorg Med Chem Lett, 2019).

For orientation: GI50 means the concentration that inhibits growth by half. Low values mean more potent growth inhibition, high ones less potent growth inhibition.

Activity calls are given as the source filed them. The rule behind the calls is not given here.

Series [1] deals with Panel NCI-60 (60 carcinoma cell lines). Put plainly: Growth inhibition of human NCI60 cells. It counts as functional.
The nature of series [2]: Drug localization in golgi apparatus of human HeLa cells at 0.5 uM by fluorescence microscopy. It counts as ADME, subcellular.
For series [3], the system named is HeLa. Put plainly: Induction of ER stress in human HeLa cells assessed as effect on pXBP1(S) level at 1 uM incubated for 1 to 24 hrs by immunoblotting analysis. Type of series: functional, cell-based. (In western blotting, separated proteins are transferred to a membrane and probed.)
Series [4] addresses T1, Oxysterol-binding protein 1 (Homo sapiens) (UniProt P22059).
T1 sequence (whole entry): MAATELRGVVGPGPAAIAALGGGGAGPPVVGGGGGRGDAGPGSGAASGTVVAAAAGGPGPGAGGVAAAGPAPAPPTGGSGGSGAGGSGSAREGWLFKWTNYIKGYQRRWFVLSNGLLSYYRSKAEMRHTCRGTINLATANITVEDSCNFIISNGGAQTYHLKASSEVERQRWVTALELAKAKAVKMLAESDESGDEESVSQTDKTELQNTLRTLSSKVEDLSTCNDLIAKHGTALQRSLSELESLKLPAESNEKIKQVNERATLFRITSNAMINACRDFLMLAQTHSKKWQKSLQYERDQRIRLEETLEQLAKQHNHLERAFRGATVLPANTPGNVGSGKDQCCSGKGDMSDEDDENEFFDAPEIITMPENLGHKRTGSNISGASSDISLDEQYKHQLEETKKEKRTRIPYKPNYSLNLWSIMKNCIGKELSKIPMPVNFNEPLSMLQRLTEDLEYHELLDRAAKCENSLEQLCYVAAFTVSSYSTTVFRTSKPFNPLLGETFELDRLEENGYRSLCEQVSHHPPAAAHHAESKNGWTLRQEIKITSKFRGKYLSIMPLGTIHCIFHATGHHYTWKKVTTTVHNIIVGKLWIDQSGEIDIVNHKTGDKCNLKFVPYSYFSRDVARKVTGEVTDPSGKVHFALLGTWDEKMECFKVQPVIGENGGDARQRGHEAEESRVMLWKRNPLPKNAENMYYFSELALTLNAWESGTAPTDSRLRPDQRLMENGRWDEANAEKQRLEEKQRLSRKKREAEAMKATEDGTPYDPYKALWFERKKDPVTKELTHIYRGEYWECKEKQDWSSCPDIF
Put plainly: Inhibition of OSBP in human HeLa cells assessed as induction of golgi stress by measuring TFE3 nuclear translocation at 2 uM incubated for 4 hrs by immunofluorescence imaging analysis. It counts as cell-based.

Series [5] has as its target T1, Oxysterol-binding protein 1 (Homo sapiens). Put plainly: Inhibition of OSBP in human HeLa cells assessed as induction of golgi stress by measuring increase in TFE3-mediated GM130 mRNA expression at 2 uM incubated for 12 hrs. Type of series: cell-based.
Series [6] shares this target. Put plainly: Inhibition of OSBP in human HeLa cells assessed as induction of golgi stress by measuring increase in TFE3-mediated SIAT4A mRNA expression at 2 uM incubated for 12 hrs. Type of series: cell-based.
Series [7] shares this target. Put plainly: Inhibition of OSBP in human HeLa cells assessed as induction of golgi stress by measuring TFE3(S)/TFE3(L) dephosphorylation at 1 uM incubated for 2 hrs by Western blot analysis. Type of series: cell-based.
Series [8] deals with HeLa. Put plainly: Induction of ER stress in human HeLa cells assessed as effect on pATF6(P) level at 1 uM incubated for 1 to 24 hrs by immunoblotting analysis. Type of series: functional, cell-based.
The target in series [9] is T1, Oxysterol-binding protein 1 (Homo sapiens). Put plainly: Induction of OSBP localization in golgi apparatus of human HeLa cells assessed as increase in colocalization of 58K golgi protein at 5 nM incubated for 30 mins by immunofluorescence imaging method. Type of series: cell-based.
Series [10] has the same target. Put plainly: Induction of OSBP localization in golgi apparatus of human HeLa cells assessed as dispersion of GM130 in to cytosol at 2 uM incubated for 6 hrs by immunofluorescence microscopic method. Type of series: cell-based.
For series [11] the target is unchanged. Put plainly: Inhibition of OSBP in human HeLa cells assessed as induction of golgi stress by measuring downregulation of HSP47 mRNA expression at 2 uM incubated for 12 hrs. Type of series: cell-based.
For series [12], the system named is HeLa. Put plainly: Induction of ER stress in human HeLa cells assessed as effect on eIF2alpha level at 1 uM incubated for 1 to 24 hrs by immunoblotting analysis. Type of series: functional, cell-based.
For series [13], the system named is HeLa. Put plainly: Induction of ER stress in human HeLa cells assessed as effect on pATF6(N) level at 1 uM incubated for 1 to 24 hrs by immunoblotting analysis. Type of series: functional, cell-based.
Series [14] has as its system HeLa. Put plainly: Induction of ER stress in human HeLa cells assessed as effect on P-eIF2alpha level at 1 uM incubated for 1 to 24 hrs by immunoblotting analysis. It counts as functional, cell-based.
Series [15] has as its system HeLa. Put plainly: Induction of ER stress in human HeLa cells assessed as effect on BiP mRNA level at 2 uM incubated for 1 1 hrs by qRT-PCR analysis. Type of series: functional, cell-based.
The subject of series [16] is HeLa. Put plainly: Induction of ER stress in human HeLa cells assessed as effect on CHOP mRNA level at 2 uM incubated for 1 1 hrs by qRT-PCR analysis. Type of series: functional, cell-based. (In general: Quantitative PCR measures a nucleic acid by following its amplification.)
The test system of series [17] is HeLa. Put plainly: Induction of ER stress in human HeLa cells assessed as effect on ATF4 level at 1 uM incubated for 1 to 24 hrs by immunoblotting analysis. It counts as functional, cell-based.
Series [18] deals with HeLa. Put plainly: Induction of ER stress in human HeLa cells assessed as effect on CHOP level at 1 uM incubated for 1 to 24 hrs by immunoblotting analysis. Type of series: functional, cell-based.
For series [19], the target named is T1, Oxysterol-binding protein 1 (Homo sapiens). Put plainly: Inhibition of OSBP in human HeLa cells assessed as induction of golgi stress by measuring GASE transactivation at 1 uM incubated for 24 hrs by GASE-luciferase reporter gene assay. Type of series: cell-based. In general terms: Reporter assays use an easily measured gene product as a stand-in for the process of interest.

For series [20] the target is unchanged. Put plainly: Induction of OSBP localization in golgi apparatus of human HeLa cells assessed as dispersion of giantin in to cytosol at 2 uM incubated for 6 hrs by immunofluorescence microscopic method. It counts as cell-based.
The target is the same in series [21]. Put plainly: Induction of OSBP localization in golgi apparatus of human HeLa cells assessed as induction of cytosolic OSBP aggregation into vesicular structures at Golgi at 0.5 uM by eYFP detection based time-lapse imaging. Type of series: cell-based.
For series [22], the system named is HeLa. Put plainly: Induction of ER stress in human HeLa cells assessed as effect on ERdj4 mRNA level at 2 uM incubated for 1 1 hrs by qRT-PCR analysis. It counts as functional, cell-based.
In series [23] the target is T1, Oxysterol-binding protein 1 (Homo sapiens). Put plainly: Inhibition of OSBP in human HeLa cells assessed as induction of golgi stress by measuring upregulation of ARF4 mRNA expression at 2 uM incubated for 12 hrs. It counts as cell-based.
For series [24] the target is unchanged. Put plainly: Inhibition of OSBP in human HeLa cells assessed as induction of golgi stress by measuring increase in TFE3-mediated GCP60 mRNA expression at 2 uM incubated for 12 hrs. It counts as cell-based.
Series [25] shares this target. Put plainly: Inhibition of OSBP in human HeLa cells assessed as induction of golgi stress by measuring increase in TFE3-mediated UAP1L1 mRNA expression at 2 uM incubated for 12 hrs. Type of series: cell-based.

Consider `COc1ccc(C(=O)O[C@H]2[C@H](O[C@@H]3[C@@H](OC(C)=O)[C@H](O[C@H]4C[C@H]5[C@@H]6CC=C7C[C@@H](O)CC[C@]7(C)[C@H]6CC[C@]5(C)[C@@]4(O)[C@H](C)C(=O)CCC(C)C)OC[C@@H]3O)OC[C@@H](OC(=O)CN(C)c3ccc(S(=O)(=O)N(C)C)c4nonc34)[C@@H]2O)cc1`, for which it took 4 nM to inhibit growth in [1] by half (GI50). Further, in series [2], the Drug uptake entry was “Active”.
On to `COc1ccc(C(=O)O[C@H]2[C@H](O[C@@H]3[C@@H](OC(C)=O)[C@H](O[C@H]4C[C@H]5[C@@H]6CC=C7C[C@@H](O)CC[C@]7(C)[C@H]6CC[C@]5(C)[C@@]4(O)[C@H](C)C(=O)CCC(C)C)OC[C@@H]3O)OC[C@@H](O)[C@@H]2O)cc1`, for which the outcome with HeLa [3], in the series with HeLa [8], with HeLa [12], in the series with HeLa [13], with HeLa [14] and in the series on HeLa [15] was inactive. For the same compound, the result in the series on HeLa [16], with HeLa [17], with HeLa [18] and with HeLa [22] was inactive. Moreover, the inhibition entry in series [4], in series [5], in series [6], in [7], in [11] and in series [19] was “Active” each time. In addition, the inhibition entry in series [23], in [24] and in series [25] was “Active” each time. In series [1], this compound came in with a GI50 of 0.78 nM. Moreover, the outcome in [9], in series [10], in series [20] and in series [21] was Active.
